Test results from the supplement of paper PMC4862054.

How the values were obtained:
Details in all cases: incubation time: 72 h
MDA-MB-468 [1] = test: normalised response (% of control), CellTox Green; higher = less cell death (100 = DMSO, 0 = benzethonium chloride kill control)
How it was run: (§1)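 CellTox Green fluorescence (485/520 nm) and, after 10 min at room temperature, CellTiter-Glo luminescence were read from breast cancer cell lines incubated 72 h in 384-well plates. Cells were seeded as 20 µl suspension onto compound at 5 concentrations in 10-fold steps over a 10,000-fold range chosen per compound. Each plate was normalised to 0.1 % DMSO (100) and a positive kill control (0). Values are normalised signals, one per concentration.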

CAL-51 [2] = test: as above
How it was run: as §1

MCF-10A [3] = test: as above
How it was run: as §1

HCC1599 [4] = test: as above
How it was run: as §1

CAL-148 [5] = test: as above
How it was run: as §1

CAL-120 [6] = test: as above
How it was run: as §1

DU-4475 [7] = test: as above
How it was run: as §1

BT-549 [8] = test: as above
How it was run: as §1

HDQ-P1 [9] = test: as above
How it was run: as §1

MFM-223 [10] = test: as above
How it was run: as §1

MDA-MB-453 [11] = test: as above
How it was run: as §1

CAL-85-1 [12] = test: as above
How it was run: as §1

Hs578T [13] = test: as above
How it was run: as §1

MDA-MB-231 [14] = test: as above
How it was run: as §1

HCC1937 [15] = test: as above
How it was run: as §1

HCC1143 [16] = test: as above
How it was run: as §1

BT-474 [17] = test: as above
How it was run: as §1

MDA-MB-436 [18] = test: as above
How it was run: as §1

MDA-MB-468 [19] = test: normalised response (% of control), CellTiter-Glo; higher = more viable cells (100 = DMSO, 0 = benzethonium chloride kill control)
Procedure: (§2)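 DSRT, 72 h incubation, CellTox Green / CellTiter-Glo readout. Signal is normalised to DMSO and benzethonium chloride controls. Value is the normalised response at dose 3.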

CAL-51 [20] = test: as above
Procedure: as §2

MCF-10A [21] = test: as above
Procedure: as §2

HCC1599 [22] = test: as above
Procedure: as §2

CAL-148 [23] = test: as above
Procedure: as §2

CAL-120 [24] = test: as above
Procedure: as §2

DU-4475 [25] = test: as above
Procedure: as §2

BT-549 [26] = test: as above
Procedure: as §2

HDQ-P1 [27] = test: as above
Procedure: as §2

MFM-223 [28] = test: as above
Procedure: as §2

SK-BR-3 = test: as above
Procedure: as §2

MDA-MB-453 [29] = test: as above
Procedure: as §2

CAL-85-1 [30] = test: as above
Procedure: as §2

Hs578T [31] = test: as above
Procedure: as §2

MDA-MB-231 [32] = test: as above
Procedure: as §2

HCC1937 [33] = test: as above
Procedure: as §2

HCC1143 [34] = test: as above
Procedure: as §2

BT-474 [35] = test: as above
Procedure: as §2

MDA-MB-436 [36] = test: as above
Procedure: as §2

SMILES	normalised response (MDA-MB-468 [1]) [%]	normalised response (CAL-51 [2]) [%]	normalised response (MCF-10A [3]) [%]	normalised response (HCC1599 [4]) [%]	normalised response (CAL-148 [5]) [%]	normalised response (CAL-120 [6]) [%]	normalised response (DU-4475 [7]) [%]	normalised response (BT-549 [8]) [%]	normalised response (HDQ-P1 [9]) [%]	normalised response (MFM-223 [10]) [%]	normalised response (MDA-MB-453 [11]) [%]	normalised response (CAL-85-1 [12]) [%]	normalised response (Hs578T [13]) [%]	normalised response (MDA-MB-231 [14]) [%]	normalised response (HCC1937 [15]) [%]	normalised response (HCC1143 [16]) [%]	normalised response (BT-474 [17]) [%]	normalised response (MDA-MB-436 [18]) [%]	normalised response (MDA-MB-468 [19]) [%]	normalised response (CAL-51 [20]) [%]	normalised response (MCF-10A [21]) [%]	normalised response (HCC1599 [22]) [%]	normalised response (CAL-148 [23]) [%]	normalised response (CAL-120 [24]) [%]	normalised response (DU-4475 [25]) [%]	normalised response (BT-549 [26]) [%]	normalised response (HDQ-P1 [27]) [%]	normalised response (MFM-223 [28]) [%]	normalised response (SK-BR-3) [%]	normalised response (MDA-MB-453 [29]) [%]	normalised response (CAL-85-1 [30]) [%]	normalised response (Hs578T [31]) [%]	normalised response (MDA-MB-231 [32]) [%]	normalised response (HCC1937 [33]) [%]	normalised response (HCC1143 [34]) [%]	normalised response (BT-474 [35]) [%]	normalised response (MDA-MB-436 [36]) [%]
COc1cc2c(NC3CCN(C(C)C)CC3)nc(N3CCC(F)(F)CC3)nc2cc1OCCCN1CCCC1 [UNC0642] (100 nM)	131	98.1	99.4	99.2	89.8	101	97.5	101	80.7	101	108	105	90.2	107	72.7	65.3	100	63.9	105	97.9	94.8	93.7	96.5	92	89.9	96.5	99.6	96.2	96	108	98.5	98.6	95	90.3	96.1	103	97.9
CNC(=O)c1cc(Oc2ccc(NC(=O)Nc3ccc(Cl)c(C(F)(F)F)c3)c(F)c2)ccn1 [Regorafenib] (100 nM)	135	105	98.1	108	101	99.8	103	109	101	88.1	103	108	99.4	74.6	99.6	87.8	98.9	90.9	94.3	97.5	105	91.2	112	98.1	100	103	98.8	102	105	105	99.8	108	101	100	100	99	106
c1ccc2c(CCNc3ccc(Nc4ccncc4)cc3)c[nH]c2c1 [Serdemetan] (100 nM)	83.8	91.4	88	93.7	96.1	96.9	100	103	51.9	93.3	103	103	99.5	93.5	98.8	104	100	88.8	95.1	84.5	95.2	122	91.8	98.2	101	101	105	99.9	98.3	106	103	93.2	98	92	99.2	90.6	92
O=C(Nc1cccnc1)N1CCC(Cc2cccc(Oc3ccc(C(F)(F)F)cn3)c2)CC1 [PF-3845] (100 nM)	107	110	107	113	103	104	107	99.9	105	102	104	97.5	87.9	121	110	121	104	107	107	106	112	85	113	102	102	104	96.7	110	112	113	104	103	115	103	107	103	103
CC(C)C[C@@H](C(=O)N[C@H](C(=O)OC1CCCC1)c1ccccc1)[C@H](O)C(=O)NO [Tosedostat] (100 nM)	-23.4	53	76	104	81.6	78.6	102	72.1	76.4	84	102	62.7	81.3	30.6	91	86.2	102	68.7	60.2	77.9	101	85.1	94.2	79.6	91.8	70	90.3	90.7	82.8	64.5	74.4	91.2	70.2	77.5	83.5	59.1	89
N#Cc1ccc(COC[C@H]2O[C@@H](n3c(NCc4ccc(Cl)c(Cl)c4)nc4c(N)ncnc43)[C@H](O)[C@@H]2O)cc1 (100 nM)	130	114	97.2	115	104	99.7	106	99.3	85.9	108	110	101	114	86.9	60.8	108	100	96	100	97.2	102	98.3	104	108	103	103	101	110	104	95.7	104	95.2	111	95.3	103	98.6	110
Cc1cc(Nc2cc(CN3CCOCC3)c3nc(C)c(Cc4ccc(Cl)cc4F)n3n2)n[nH]1 [Gandotinib] (100 nM)	119	98.9	84.8	112	103	89	99.2	90	109	105	102	95	72	103	102	108	100	100	97.9	94.3	105	85.9	105	96.1	101	94.4	110	93.4	95.6	104	102	96.3	98.8	104	109	99.9	105
COCC[n+]1c2c(n(Cc3cnccn3)c1C)C(=O)c1ccccc1C2=O [YM155] (100 nM)	-69.5	21.2	-8.31	71.7	18.9	-16.3	92.8	88.9	-5.41	70.4	87.8	-130	106	0.07	22.8	75.2	-29.1	19.2	0.08	2.89	6.51	9.07	0.53	-0.1	20.4	36.9	1.96	26.2	4.6	27.8	-0.47	62	1.55	0.92	1.4	5.9	1.98
NC(=O)c1ccc(I)c([N+](=O)[O-])c1 [Iniparib] (100 nM)	128	98.5	100	83.9	53.4	99.1	94.2	106	99.5	97.5	99.1	103	94.2	83	92.4	70.8	95.7	67.8	85.2	117	76.1	94	84.8	89.6	98.8	99	95	82.7	80.9	78.5	92	92.8	90.9	93.1	96.9	92	93
